Experimental data reported in US7998940B2, “Aptamers to von Willebrand factor and their use as thrombotic disease therapeutics” (Archemix Corp., priority 2004, dated 2011).
Where two headings read alike, the source gives them in different places. Oligonucleotides are written 5' to 3', each unit as a sugar letter and its base; * is a phosphorothioate linkage, no mark a phosphodiester; rarer units and linkages stand in square brackets, end groups in braces. Plain capitals give the bases only. {PEG20K-NH2} = 20 kDa PEG attached to the 5' nucleotide via an amine linker; [invdT] = inverted (3'-3') thymidine; d = 2'-deoxy (DNA); r = 2'-OH (RNA)

Legend:
[1] = molecular target: human vWF A1 domain (SEQ ID NO 5) (Homo sapiens, UniProt P04275, T1381A); assay: dot blot KD determination, human vWF A1 domain; conditions: read-out: Human vWF A1 domain KD
human vWF A1 domain (SEQ ID NO 5), sequence (P04275 with tags, fused parts or gaps T1381A): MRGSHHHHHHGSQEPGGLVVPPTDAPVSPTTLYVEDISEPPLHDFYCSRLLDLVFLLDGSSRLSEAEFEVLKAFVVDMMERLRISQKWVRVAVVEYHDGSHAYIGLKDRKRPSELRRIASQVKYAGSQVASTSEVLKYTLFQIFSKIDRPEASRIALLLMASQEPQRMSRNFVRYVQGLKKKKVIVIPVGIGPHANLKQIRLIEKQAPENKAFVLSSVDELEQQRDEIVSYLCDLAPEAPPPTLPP
Description: For KD determination, aptamers transcripts were purified on 10% denaturing polyacrylamide gels, 5′ end labeled with γ-^32P ATP.
For KD determination, aptamers were purified on denaturing polyacrylamide gels and 5′-end labeled with γ-^32P ATP. A 6 point protein titration of human vWF A1 domain (SEQ ID NO 5) was used in the dot blot assay (333 nM, 100 nM, 33 nM, 10 nM, 3 nM, 0 nM) in 1×DPBS plus 0.1 mg/mL BSA at room temperature for 30 minutes. KD values were calculated by fitting the equation y=(max/(1+K/protein))+yint using KaleidaGraph (KaleidaGraph v. 3.51, Synergy Software).
KD values were calculated by fitting the equation y=(max/(1+K/protein))+yint using KaleidaGraph (KaleidaGraph v. 3.51, Synergy Software).
All minimer sequences were transcribed, gel-purified on 15% denaturing polyacrylamide gels, 5-^32 end-labeled with γ^32P ATP, and then desalted using two Centri-Spin 10 columns (Princeton Separations Cat. #CS-101, Adelphia, N.J.). For KD determination, minimer transcripts were tested for direct binding to full length human vWF (SEQ ID NO 7), human vWF A1 domain (SEQ ID NO 5), and rabbit vWF A1 domain (SEQ ID NO 6) using an 8 point protein titration from 0-300 nM (3 fold dilutions) in 1× Dulbecco's PBS containing 0.1 mg/mL BSA (in a final volume of 50 uL) for 30 minutes at room temperature and then applied to a nitrocellulose and nylon filter sandwich in a dot blot apparatus (Schleicher and Schuell, Keene, N.H.). KD values were calculated by fitting the equation y=(max/(1+K/protein))+yint using KaleidaGraph (KaleidaGraph v. 3.51, Synergy Software).
All minimer DNA sequences were chemically synthesized, 5-^32P end-labeled with γ-^32P ATP, and then desalted using two Centri-Spin 10 columns (Princeton Separations, Cat. #CS-101, Adelphia, N.J.). […] KD values were calculated by fitting the equation y=(max/(1+K/protein))+yint using KaleidaGraph (KaleidaGraph v. 3.51, Synergy Software).

[2] = test system: botrocetin induced platelet aggregation; assay: Inhibition of botrocetin induced platelet aggregation (BIPA) in human PRP; assay type: cell-based; conditions: for ≦200 nM aptamer gives >90% blocking in BIPA at 6 minutes: botrocetin induced platelet aggregation; for IC90: human platelet rich plasma
Description: In platelet rich plasma isolated from fresh human blood, botrocetin induces platelet aggregation via vWF. Platelet aggregate formation can be measured optically as an increase in % light transmittance on a Chronolog Model 490-4D Aggregometer because aggregation of platelets clarifies the plasma. Aptamers of the invention were analyzed for their ability to inhibit botrocetin induced platelet aggregation (“BIPA”) in human blood. An aptamer of the invention was considered to be active if it could prevent aggregate formation for six minutes post botrocetin addition.
In order to determine the activity of aptamers on live human platelets, BIPA assays were done using freshly prepared platelet rich plasma. Blood was obtained from healthy human donors who had not taken NSAIDS for at least five days. […] Collected blood was pooled into 15 mL conical tubes and was spun at 200 g for 20 minutes. The turbid, yellow layer of platelet rich plasma (“PRP”) was withdrawn from the tubes, pooled, and set aside at room temperature. The remaining blood was spun at 2500 g for ten minutes. The clarified layer of plasma, known as platelet poor plasma (“PPP”), was withdrawn and set aside at room temperature. PRP was aliquoted into cuvettes containing stir bars at a volume of 470 uL. A sample of 500 uL of PPP was aliquoted into a cuvette and placed in the PPP reference cell of the platelet aggregometer. Samples of PRP were prewarmed at 37 degrees C. in the platelet aggregometer for 3-5 minutes before being used in BIPA assays. First, the concentration of botrocetin needed to induce platelet aggregation for each individual donor was determined by titration. This concentration of botrocetin was used for the remainder of the experiment. Next, aptamer was assayed by adding titrations of aptamer (zero, 1 nM to 1000 nM) to prewarmed PRP for one minute, followed by addition of botrocetin. With platelet aggregation, an increase in amplitude of light transmission is seen (FIG. 8). The concentration at which platelet aggregation is blocked at 90% or greater after 6 minutes is reported in the final column of Table 26.

[3] = test system: rabbit vWF A1 domain (SEQ ID NO 6); assay: dot blot KD determination, rabbit vWF A1 domain; assay type: binding
rabbit vWF A1 domain (SEQ ID NO 6), sequence (as listed by the source): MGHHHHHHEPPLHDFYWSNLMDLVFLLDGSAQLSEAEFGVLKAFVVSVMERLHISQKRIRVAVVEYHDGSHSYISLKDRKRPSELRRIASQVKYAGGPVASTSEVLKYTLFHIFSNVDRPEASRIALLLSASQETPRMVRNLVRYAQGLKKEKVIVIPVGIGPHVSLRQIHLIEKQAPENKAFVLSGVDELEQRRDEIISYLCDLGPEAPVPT
Description: A 12 point protein titration was used in the dot blot assay (300 nM, 100 nM, 30 nM, 10 nM, 3 nM, 1 nM, 300 pM, 100 pM, 30 pM, 10 pM, 3 pM, 0 pM) in 1×DPBS plus 0.1 mg/mL BSA at room temperature for 30 minutes.

[4] = test system: full length human vWF binding to lyophilized platelets; assay: Full length human von Willebrand Factor platelet binding assay (FACS); assay type: cell-based; conditions: 5 nM full length human vWF, lyophilized platelets, botrocetin
How it was run: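 Aptamer titrations (0.1–1000 nM) pre-incubated with 5 nM full-length human vWF, then added to lyophilized platelets plus botrocetin for 15 min at 37 °C in PBS/0.5% BSA. Bound vWF detected by anti-vWF then FITC secondary antibody via flow cytometry MFI; % inhibition versus no-aptamer binding fitted for IC50.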

[5] = test system: rabbit vWF domain A1 binding to lyophilized platelets; assay: Rabbit von Willebrand Factor domain A1 platelet binding assay (FACS); assay type: cell-based; conditions: 4 nM rabbit A1 vWF, lyophilized platelets, botrocetin
rabbit vWF domain A1 binding to lyophilized platelets, sequence (as listed by the source): as above
Description: Botrocetin induces the binding of the A1 domain of vWF to platelets, as well as the full length protein. It was determined by the inventors that 6-Histidine-tagged rabbit A1 domain vWF purified protein could be induced to bind to human lyophilized platelets with botrocetin. Rabbit A1 binding to platelets is measured with an anti-poly-His antibody followed by incubation with a phycoerythrin conjugated secondary antibody. The degree of binding can be quantified by flow cytometric analysis. The ability of aptamers to block the binding of rabbit A1 to human fixed platelets was correlated with decreased fluorescence signal.
The ability of aptamers of the invention to block rabbit vWF domain A1 binding to lyophilized platelets was also assessed by flow cytometric analysis. Titrations of aptamers (zero, 0.1 nM to 1000 nM) were preincubated briefly with 4 nM of rabbit A1 vWF in FACS buffer (PBS plus 0.5% bovine serum albumin) at room temperature in a volume of 50 uL. Another 50 uL containing 5 uL of lyophilized platelets plus 1 uL of 0.1 U/uL of botrocetin in FACS buffer was added to aptamer/vWF. This reaction was allowed to proceed for 15 minutes at 37 degrees C. after which 200 uL of FACS buffer was added. Platelets were collected by a 6 minute spin at 1470 RCF and the supernatant was discarded. The pellets were resuspended in 100 uL of FACS buffer containing a 1:200 dilution of anti-Penta-HIS-biotin conjugate antibody and were incubated at room temperature for 30 minutes. After the dilution with 200 uL of FACS buffer, the platelets were spun at 1470 RCF for 6 minutes, and the supernatant was discarded. The pellets were resuspended in a 1:100 solution of anti-IgG-PE antibody and were incubated in the dark for 30 minutes at room temperature. The entire 100 uL was diluted into 200 uL of FACS buffer and analyzed immediately by flow cytometric analysis in the FACSCAN. Contaminating debris was eliminated from the analysis by drawing a gate around the population of single and aggregated platelets and collecting data from 10000 events. Median fluorescent intensity (“MedFI”) readings (which are generally equivalent to the MFI readings, described in Example 3a above, for comparative purposes) were quantified for each sample analyzed by flow cytometry. Background MedFI was subtracted from all data points. Percent inhibition was reported by calculating the percent value of binding of […] to platelets in the presence of aptamer at a given concentration relative to binding in the absence of any aptamer (see FIG. 7). IC50 values were determined by fitting the percent inhibition of vWF binding to platelets as a function of aptamer concentration to the equation: % inhibition=% inhibitionmax/(1+IC50/aptamer conc.)

[6] = test system: full length human vWF (SEQ ID NO 7); assay: dot blot KD determination and extent of binding, full length human vWF; conditions: for Kd: read-out: Full length human vWF KD;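 as to all read-outs here: dot blot binding of aptamers to full length human vWF across a protein titration, incubated 30 minutes at room temperature in 1x DPBS with BSA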
[7] = test system: vWF dependent platelet plug formation, human whole blood; assay: PFA-100 assay, human whole blood; assay type: cell-based; conditions: citrated human whole blood; minimum concentration that extends closing time to 300 seconds
From the text: Another assay of this Example, using the PFA-100 instrument, is an agonist independent but vWF dependent assay that uses the PFA-100 instrument (Harrison et al., Clin. Lab. Haem., v24, p 225-32 (2002)). The PFA-100 simulates the formation of a hemostatic plug under conditions of high shear force in vivo by recording the time required for a platelets to aggregate and block the flow of citrated whole blood through a microscopic aperture in a membrane coated with collagen and either epinephrine or ADP. This activity is von Willebrand factor dependent as high MW vWF multimers bind to immobilized collagen on the membrane and then bind to and activate platelets because of the shear force induced by drawing the blood through the microscopic aperture.
Fresh whole blood was collected from healthy non-steroidal anti-inflammatory drug (NSAID) free cynomolgus macaques. Aptamers were diluted with physiological saline from Aldon (Cat#9420306) in no-additive vacutainer tubes (Cat#366434, Becton Dickenson). Samples were loaded onto collagen/epinephrine test cartridges (Cat#B4170-20A, Dade Behring) which were used in the PFA-100 machine (Dade Behring). Trigger solution (Cat#B4170-50, Dade Behring) was used in the self-test and to pre-wet the test cartridges. O-ring cleaning pads (Cat#B4170-73, Dade Behring) were used in the self-test and in the O-ring cleaning process.
A self-test, which included an O-ring cleaning process, was always run on the PFA-100 machine before running any samples to ensure proper function of the machine.
During the entire experiment, the tubes of whole blood were gently inverted every five minutes to prevent settling.
In order to assay the titration of aptamer in whole blood, the aptamer was added to no-additive vacutainer tubes and diluted to the desired concentrations (ex: 0 nM, 1 nM to 1000 nM) using physiological saline such that the final volume was […]. When the PFA-100 was ready to run the next set of samples, 1940 μl of whole blood was added to the tube containing a concentration of aptamer. This tube was gently inverted three times to thoroughly mix the aptamer and blood. Samples were always run in duplicate on the PFA-100 machine. 800 μl of this blood mixture was loaded into the collagen/epinephrine test cartridges. The test cartridges were loaded onto the PFA-100 machine. The time of occlusion of the aperture was measured by the PFA-100, with a maximal time of 300 seconds. We estimate the IC95 in this assay to be the minimum concentration of aptamer that extends the closing time to 300 seconds.

[8] = pharmacokinetics after 3 mg/kg IV in cynomolgus macaques (Oligreen, HPLC); assay type: in vivo; conditions: cynomolgus monkey, in vivo, iv, 3 mg/kg
Description: ARC1368 (SEQ ID NO 291), 1779 (SEQ ID NO 320) and 1780 (SEQ ID NO 321) (as described in Example 2 above) were injected intravenously into cynomolgus macaques (n=3/group) at a dosage of 3 mg/kg which was expected to yield an instantaneous plasma concentration of 3 uM, approximately 30-fold higher than the putative effective dose. Subsequently, citrated blood samples were collected at regular intervals and processed for plasma.
Subsequently, plasma aptamer concentrations were determined using the Oligreen assay (Gray et al., Antisense and Nucleic Acid Drug Development 7 (3):133-140 (1997). The data were subsequently analyzed using the program WinNonlin to yield the pharmacokinetic parameters listed in Tables 29 to 31 below.
Following the Oligreen assay analysis, plasma aptamer concentrations were determined for the animals dosed with ARC1779 (SEQ ID NO 320) using a validated HPLC-based assay. The HPLC data were analyzed via noncompartmental and 2-compartment analysis using the program WinNonlin.

[9] = rRdY minimers, 8 point titration 0-300 nM
[10] = read-out: Inhibition of full length hVWF binding in FACS assay, Average IC50
[11] = read-out: Inhibition of rabbit VWF A1 domain binding in FACS assay, Average IC50
[12] = units in the cell: lower bound pM, upper bound nM, read-out: Inhibition of full length hVWF binding in FACS assay, IC50 range
[13] = DNA 2 minimers, 9 point protein titration
[14] = units in the cell: lower bound pM, upper bound nM, read-out: Inhibition of rabbit VWF A1 domain binding in FACS assay, IC50 range

Substance: ATGAGAGTGCTGGTGGATTGCTCAGGTCTGCTGGCTGCTTACTCTCAT (DNA, backbone not given here) [ARC845, minimized DNA aptamer]
- Kd ([1]; DNA 1 minimers, competition dot blot, 10 nM protein): 10 nM
- ≦200 nM aptamer gives >90% blocking in BIPA at 6 minutes [2]: no activity
- Kd ([3]; DNA 1 minimers): 56 nM
- Inhibition of full length hVWF binding in FACS assay, Average IC50 [4]: no activity
- Inhibition of full length hVWF binding in FACS assay, IC50 range ([4]; both bounds in nM): no activity
- Inhibition of rabbit VWF A1 domain binding in FACS assay, Average IC50 [5]: no activity
- Inhibition of rabbit VWF A1 domain binding in FACS assay, IC50 range ([5]; both bounds in nM): no activity
- Full length human vWF KD ([6]; DNA 1 minimers): No binding

Substance: GGAGCCACACGACATTGGCGGGCGAGAGCCACGCATGGCTCC (rGrGrArGdCdCrAdCrAdCrGrAdCrAdTdTrGrGdCrGrGrGdCrGrArGrArGdCdCrAdCrGdCrAdTrGrGdCdTdCdC) [SEQ ID NO 192, minimized rRdY aptamer]
- Kd [1, 9]: 4 ± 1 nM
- ≦200 nM aptamer gives >90% blocking in BIPA at 6 minutes [2]: yes
- Kd [3, 9]: 8 ± 1 nM
- IC50 [4, 10]: 2600 pM
- IC50 [5, 11]: 2200 pM
- Kd [6, 9]: 2 ± 0.2 nM

Substance: GGAGCCACGGGGTGGGTAGACGGCGGGTATGTGGCTCC (rGrGrArGdCdCrAdCrGrGrGrGdTrGrGrGdTrArGrAdCrGrGdCrGrGrGdTrAdTrGdTrGrGdCdTdCdC) [SEQ ID NO 180, minimized rRdY aptamer]
- Kd [1, 9]: 11 nM
- ≦200 nM aptamer gives >90% blocking in BIPA at 6 minutes [2]: yes
- Kd [3, 9]: 14 nM
- IC50 [4, 10]: 2000 pM
- IC50 [4, 12]: 731 to 3800 pM
- IC50 [5, 11]: 9300 pM
- Kd [6, 9]: 1 nM

Substance: GGCGTGCAGTGCCTATTCTAGGCCGTGCGGTGCCTCCGTCACGCC-3T (DNA, [invdT] at 3' end, backbone not given here) [ARC 1027, minimized DNA aptamer]
- ≦200 nM aptamer gives >90% blocking in BIPA at 6 minutes [2]: yes
- Kd [3, 13]: 4.6 nM
- IC50 [4, 10]: 1500 pM
- IC50 [4, 12]: 208 to 4200 pM
- IC50 [5, 11]: 2000 pM
- IC50 [5, 14]: 462 to 4200 pM
- Kd [6, 13]: 0.8 nM

Substance: PEG20K-NH2-dGdGdCdGTdGdCdAdGTdGdCdCTTdCdGdGdCdCdGTdGdCdGdGTdGdCdCTdCdCdGTdCdAdCdGdCdC-3T (GGCGTGCAGTGCCTTCGGCCGTGCGGTGCCTCCGTCACGCC; DNA, [invdT] at 3' end, 5' {PEG20K-NH2}, backbone not given here) [ARC1885, 20 kDa PEG conjugate of ARC1172]
- IC90 [2]: ~50 nM
- ~IC95 PFA-100 (nM) with citrated human whole blood [7]: ~100 nM

Substance: PEG40K-NH2-mGmCmGmUdGdCdAmGmUmGmCmCmUmUmCmGmGmCdCmG-s-TmGdCdGdGTmGmCdCmUdCdCmGmUdCmAmCmGmC-3T [ARC1780]
- IC90 [2]: ~100 nM
- AUCall, Mean [8]: 751.065 µg·h/mL
- AUClast, Mean [8]: 751.065 µg·h/mL
- MRTlast, Mean [8]: 10.78 h
- distribution phase [8]: prolonged distribution phase
- pharmacokinetic profile [8]: mainly monophasic
- ~IC95 PFA-100 (nM) with citrated human whole blood [7]: ~100 nM

Substance: dGCGTGCAGTGCCT-[PEG]-AGGCCGTGCGGTGCCTCCGTCACGCC-3T (DNA GCGTGCAGTGCCTAGGCCGTGCGGTGCCTCCGTCACGCCT; chemistry not fully specified) [ARC1028, minimized DNA aptamer]
- ≦200 nM aptamer gives >90% blocking in BIPA at 6 minutes [2]: yes
- Kd [3, 13]: 3.8 nM
- IC50 [4, 10]: 1200 pM
- IC50 [4, 12]: 473 to 2700 pM
- IC50 [5, 11]: 1500 pM
- IC50 [5, 14]: 526 to 2700 pM
- Kd [6, 13]: 1.1 nM
